Results as given in US9353091B2 (priority 2009, dated 2016).
pEC50, pIC50: −log10 of the molar value.

Assays:
[1] = molecular target: T1, HCV polymerase 1A (Δ21 NS5B) (Hepatitis C virus genotype 1a, UniProt P27958); assay: HCV Polymerase Inhibition Assay (1a); format: biochemical
T1 construct: 20 to 50 nM Δ21 NS5B
Protocol: (§1) Reaction volume was 50 μL. The reaction was terminated by the addition of 1 volume of 4 mM spermine in 10 mM Tris-Cl pH 8.0, 1 mM EDTA. After incubation for at least 15 minutes at room temperature, the precipitated RNA was captured by filtering through a GF/B filter (Millipore) in a 96 well format. The filter plate was washed three times with 200 μL, each of 2 mM spermine, 10 mM Tris-Cl pH 8.0, 1 mM EDTA, and 2 times with ethanol. After air-drying, 30 μL, of Microscint 20 scintillation cocktail (Packard) was added to each well, and the retained cpm were determined by scintillation counting. […] Retained cpm were plotted vs. inhibitor concentration and fit to equation 1 using non-linear regression (ref. 1) to obtain the IC50 values: Retained cpm=A[sqrt{(IC50+It−Et)^2+4*IC50*Et}−(IC50+It−Et)]
(§2) Ref. Morrison, J. F. and S. R. Stone. 1985. Approaches to the study and analysis of the inhibition of enzymes by slow- and tight-binding inhibitors. Comments Mol. Cell. Biophys. 2: 347-368.
(§3) The sequence of the template RNA used was: 5′-[…] […] […] […] […] […] […] […] […] […] […] […] […] […] […] […] […]-3′ (SEQ ID NO: 1)

[2] = molecular target: T2, HCV polymerase 1B (Δ21 NS5B) (Hepatitis C virus genotype 1b, UniProt P26663); assay: HCV Polymerase Inhibition Assay (1b); format: biochemical
T2 construct: 20 to 50 nM Δ21 NS5B
T2 sequence (P26663 2420-2989, stated change not applied): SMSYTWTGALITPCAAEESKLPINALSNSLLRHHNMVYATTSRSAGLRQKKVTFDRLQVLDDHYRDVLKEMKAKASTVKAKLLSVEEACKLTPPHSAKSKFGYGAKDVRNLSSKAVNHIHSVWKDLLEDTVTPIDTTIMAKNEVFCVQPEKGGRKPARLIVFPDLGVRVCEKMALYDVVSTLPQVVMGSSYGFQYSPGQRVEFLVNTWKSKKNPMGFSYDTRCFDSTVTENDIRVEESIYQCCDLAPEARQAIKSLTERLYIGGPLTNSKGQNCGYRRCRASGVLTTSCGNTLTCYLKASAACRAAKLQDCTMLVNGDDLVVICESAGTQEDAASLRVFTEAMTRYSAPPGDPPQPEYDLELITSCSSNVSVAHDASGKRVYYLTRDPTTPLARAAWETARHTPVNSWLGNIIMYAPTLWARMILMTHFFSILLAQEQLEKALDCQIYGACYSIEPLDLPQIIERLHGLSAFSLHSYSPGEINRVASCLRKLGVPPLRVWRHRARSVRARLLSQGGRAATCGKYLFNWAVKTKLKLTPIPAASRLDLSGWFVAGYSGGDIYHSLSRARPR
Protocol: as §1, §2, §3

[3] = system: genotype 1a-H77 subgenomic replicon cell line; assay: HCV Polymerase Replicon Assay (genotype 1a-H77, luciferase reporter); format: cell-based; conditions: Hepatitis C virus, 72 h, 1a-H77 replicon, three days
[4] = system: genotype 1b-Con1 subgenomic replicon cell line; assay: HCV Polymerase Replicon Assay (genotype 1b-Con1, luciferase reporter); format: cell-based; conditions: Hepatitis C virus, 72 h, 1b-Con1 replicon, three days

T1 sequence (P27958 2421-2990, stated change not applied): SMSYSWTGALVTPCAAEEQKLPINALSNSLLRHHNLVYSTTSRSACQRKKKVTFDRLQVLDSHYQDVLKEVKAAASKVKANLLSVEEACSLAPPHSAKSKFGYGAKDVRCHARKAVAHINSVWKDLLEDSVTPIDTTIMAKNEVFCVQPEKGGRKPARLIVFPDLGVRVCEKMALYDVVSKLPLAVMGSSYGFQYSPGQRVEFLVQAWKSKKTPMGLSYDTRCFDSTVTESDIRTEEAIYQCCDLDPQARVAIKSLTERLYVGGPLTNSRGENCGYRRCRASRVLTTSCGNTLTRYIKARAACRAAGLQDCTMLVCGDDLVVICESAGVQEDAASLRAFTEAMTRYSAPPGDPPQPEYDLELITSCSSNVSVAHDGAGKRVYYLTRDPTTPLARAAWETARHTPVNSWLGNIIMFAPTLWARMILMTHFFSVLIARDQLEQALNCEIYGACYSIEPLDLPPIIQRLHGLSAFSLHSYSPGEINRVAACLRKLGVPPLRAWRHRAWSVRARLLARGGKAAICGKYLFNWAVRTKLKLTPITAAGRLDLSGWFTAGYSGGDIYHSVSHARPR

## COc1c(-c2ccc3cc(NS(C)(=O)=O)ccc3c2)cc(-c2c[nH]c(=O)[nH]c2=O)cc1C(F)(F)C(F)(F)F [compound 37, N-(6-(5-(2,4-dioxo-1,2,3,4-tetrahydropyrimidin-5-yl)-2-methoxy-3-(perfluoroethyl)phenyl)naphthalen-2-yl)methanesulfonamide]
[1]
  pIC50: > 8.00
[2]
  pIC50: 7.00 to 8.00
[3]
  pEC50: 6.00 to 7.00
[4]
  pEC50: 7.00 to 8.00

## COc1c(-c2ccc3cc(NS(C)(=O)=O)ccc3c2)cc(NC(=O)CN)cc1C(C)(C)C [compound 20, 2-amino-N-(3-tert-butyl-4-methoxy-5-(6-(methylsulfonamido)naphthalen-2-yl)phenyl)acetamide]
[1]
  pIC50: < 6.00
[2]
  pIC50: < 6.00

## COc1c(-c2ccc(/C=N/NS(C)(=O)=O)cc2)cc(N2CCCS2(=O)=O)cc1C(C)(C)C [compound 45, (E)-N′-((3′-tert-butyl-5′-(2-(1,1-dioxidoisothiazolidin-2-yl))-2′ methoxybiphenyl-4-yl)methylene)methanesulfonylhydrazide]
[1]
  pIC50: 6.00 to 7.00
[2]
  pIC50: 6.00 to 7.00
[3]
  pEC50: < 6.00
[4]
  pEC50: 6.00 to 7.00

## COc1c(-c2ccc3cc(NS(C)(=O)=O)ccc3c2)cc(NC(=O)NC(C)C)cc1C(C)(C)C [compound 18, N-(6-(3-tert-butyl-5-(3-isopropylureido)-2-methoxyphenyl)naphthalen-2-yl)methanesulfonamide]
[1]
  pIC50: < 6.00
[2]
  pIC50: < 6.00

## COc1c(-c2ccc3cc(NS(C)(=O)=O)ccc3c2)cc(C(=O)c2ccccc2)cc1C(C)(C)C [compound 31, N-(6-(5-benzoyl-3-tert-butyl-2-methoxyphenyl)naphthalen-2-yl)methanesulfonamide]
[1]
  pIC50: < 6.00
[2]
  pIC50: < 6.00

## COc1c(-c2ccc3cc(NS(C)(=O)=O)ccc3c2)cc(-c2c[nH]c(=O)[nH]c2=O)cc1-c1ccc(C)o1 [compound 42, N-(6-(5-(2,4-dioxo-1,2,3,4-tetrahydropyrimidin-5-yl)-2-methoxy-3-(5-methylfuran-2-yl)phenyl)naphthalen-2-yl)methanesulfonamide]
[1]
  pIC50: > 8.00
[2]
  pIC50: 7.00 to 8.00
[3]
  pEC50: 7.00 to 8.00
[4]
  pEC50: ≥ 8.00

## COc1c(/C=C/c2ccc(NS(C)(=O)=O)cc2)cc(C(=O)c2ccccc2)cc1C(C)(C)C [compound 32, (E)-N-(4-(5-benzoyl-3-tert-butyl-2-methoxystyryl)phenyl)methanesulfonamide]
[1]
  pIC50: < 6.00
[2]
  pIC50: < 6.00

## COc1c(-c2ccc3cc(NS(C)(=O)=O)ccc3c2)cc(-c2c[nH]c(=O)[nH]c2=O)cc1C(C)(C)C [compound 28, N-(6-(3-tert-butyl-5-(2,4-dioxo-1,2,3,4-tetrahydropyrimidin-5-yl)-2-methoxyphenyl)naphthalen-2-yl)methanesulfonamide]
[1]
  pIC50: > 8.00
[2]
  pIC50: 7.00 to 8.00
[3]
  pEC50: ≥ 8.00
[4]
  pEC50: ≥ 8.00

## COc1c(-c2ccoc2)cc(-c2c[nH]c(=O)[nH]c2=O)cc1-c1ccc2cc(NS(C)(=O)=O)ccc2c1 [compound 38, N-(6-(5-(2,4-dioxo-1,2,3,4-tetrahydropyrimidin-5-yl)-3-(furan-3-yl)-2-methoxyphenyl)naphthalen-2-yl)methanesulfonamide]
[1]
  pIC50: > 8.00
[2]
  pIC50: 7.00 to 8.00
[3]
  pEC50: 6.00 to 7.00
[4]
  pEC50: 7.00 to 8.00

## COc1c(-c2ccc3cc(NS(C)(=O)=O)ccc3c2)cc(-c2ccc(=O)[nH]c2)cc1C(C)(C)C [compound 10, N-(6-(3-tert-butyl-2-methoxy-5-(6-oxo-1,6-dihydropyridin-3-yl)phenyl)naphthalen-2-yl)methanesulfonamide]
[1]
  pIC50: 6.00 to 7.00
[2]
  pIC50: < 6.00
[3]
  pEC50: 6.00 to 7.00
[4]
  pEC50: < 6.00

## COc1c(-c2ccc3cc(NS(C)(=O)=O)ccc3c2)cc(-c2cn(C)c(=O)n(C)c2=O)cc1C(C)(C)C [compound 8, N-(6-(3-tert-butyl-5-(1,3-dimethyl-2,4-dioxo-1,2,3,4-tetrahydropyrimidin-5-yl)-2-methoxyphenyl)naphthalen-2-yl)methanesulfonamide]
[1]
  pIC50: 6.00 to 7.00
[2]
  pIC50: 6.00 to 7.00
[3]
  pEC50: 6.00 to 7.00
[4]
  pEC50: 7.00 to 8.00

## COc1c(-c2ccc3cc(NS(C)(=O)=O)ccc3c2)cc(-c2ccc(F)cc2F)cc1C(C)(C)C [compound 11, N-(6-(5-tert-butyl-2′,4′-difluoro-4-methoxybiphenyl-3-yl)naphthalen-2-yl)methanesulfonamide]
[1]
  pIC50: < 6.00
[2]
  pIC50: < 6.00
[4]
  pEC50: < 6.00

## COc1c(-c2ccc3cc(NS(C)(=O)=O)ccc3c2)cc(N2CCCC2=O)cc1C(C)(C)C [compound 29, N-(6-(3-tert-butyl-2-methoxy-5-(2-oxopyrrolidin-1-yl)phenyl)naphthalen-2-yl)methanesulfonamide]
[1]
  pIC50: 7.00 to 8.00
[2]
  pIC50: 7.00 to 8.00
[3]
  pEC50: 6.00 to 7.00
[4]
  pEC50: 7.00 to 8.00

## COc1c(-c2ccsc2)cc(-c2c[nH]c(=O)[nH]c2=O)cc1-c1ccc2cc(NS(C)(=O)=O)ccc2c1 [compound 43, N-(6-(5-(2,4-dioxo-1,2,3,4-tetrahydropyrimidin-5-yl)-2-methoxy-3-(thiophen-3-yl)phenyl)naphthalen-2-yl)methanesulfonamide]
[1]
  pIC50: > 8.00
[2]
  pIC50: > 8.00
[3]
  pEC50: 6.00 to 7.00
[4]
  pEC50: 7.00 to 8.00

## CC(C)(C)c1cc(-c2c[nH]c(=O)[nH]c2=O)cc(-c2ccc3cc(NS(C)(=O)=O)ccc3c2)c1N [compound 33, N-(6-(2-amino-3-tert-butyl-5-(2,4-dioxo-1,2,3,4-tetrahydropyrimidin-5-yl)phenyl)naphthalen-2-yl)methanesulfonamide]
[1]
  pIC50: > 8.00
[2]
  pIC50: 7.00 to 8.00
[3]
  pEC50: 6.00 to 7.00
[4]
  pEC50: 7.00 to 8.00

## COc1c(-c2ccc3cc(NS(C)(=O)=O)ccc3c2)cc(NC(N)=O)cc1C(C)(C)C [compound 14, N-(6-(3-tert-butyl-2-methoxy-5-ureidophenyl)naphthalen-2-yl)methanesulfonamide]
[1]
  pIC50: > 8.00
[2]
  pIC50: 7.00 to 8.00
[3]
  pEC50: 6.00 to 7.00
[4]
  pEC50: 7.00 to 8.00

## CCNC(=O)Nc1cc(-c2ccc3cc(NS(C)(=O)=O)ccc3c2)c(OC)c(C(C)(C)C)c1 [compound 22, N-(6-(3-tert-butyl-5-(3-ethylureido)-2-methoxyphenyl)naphthalen-2-yl)methanesulfonamide]
[1]
  pIC50: 6.00 to 7.00
[2]
  pIC50: 6.00 to 7.00
[3]
  pEC50: 6.00 to 7.00
[4]
  pEC50: 6.00 to 7.00

## COc1c(-c2ccc3cc(NS(C)(=O)=O)ccc3c2)cc(-c2c[nH]c(=O)[nH]c2=O)cc1-c1ccco1 [compound 40, N-(6-(5-(2,4-dioxo-1,2,3,4-tetrahydropyrimidin-5-yl)-3-(furan-2-yl)-2-methoxyphenyl)naphthalen-2-yl)methanesulfonamide]
[1]
  pIC50: > 8.00
[2]
  pIC50: > 8.00
[3]
  pEC50: 6.00 to 7.00
[4]
  pEC50: 7.00 to 8.00

## COc1c(-c2ccc3c(c2)CCC3=O)cc(-c2c[nH]c(=O)[nH]c2=O)cc1C(C)(C)C [compound 12, 5-(3-tert-butyl-4-methoxy-5-(1-oxo-2,3-dihydro-1H-inden-5-yl)phenyl)pyrimidine-2,4(1H,3H)-dione]
[1]
  pIC50: 7.00 to 8.00
[2]
  pIC50: 7.00 to 8.00
[3]
  pEC50: 6.00 to 7.00
[4]
  pEC50: 6.00 to 7.00

## COc1c(/C=C/c2ccc(NS(C)(=O)=O)cc2)cc(-c2c[nH]c(=O)[nH]c2=O)cc1C(F)(F)F [compound 50, (E)-N-(4-(5-(2,4-dioxo-1,2,3,4-tetrahydropyrimidin-5-yl)-2-methoxy-3-(trifluoromethyl)styryl)phenyl)methanesulfonamide]
[1]
  pIC50: 7.00 to 8.00
[2]
  pIC50: 7.00 to 8.00
[3]
  pEC50: 6.00 to 7.00
[4]
  pEC50: 7.00 to 8.00

## COc1c(-c2ccc3cc(NS(C)(=O)=O)ccc3c2)cc(NC(=O)CNC(=O)OC(C)(C)C)cc1C(C)(C)C [compound 19, tert-butyl 2-(3-tert-butyl-4-methoxy-5-(6-(methylsulfonamido)naphthalen-2-yl)phenylamino)-2-oxoethylcarbamate]
[1]
  pIC50: < 6.00
[2]
  pIC50: < 6.00

## COc1c(-c2ccc3cc(NS(C)(=O)=O)ccc3c2)cc(NC(=O)CCN)cc1C(C)(C)C [compound 24, 3-amino-N-(3-tert-butyl-4-methoxy-5-(6-(methylsulfonamido)naphthalen-2-yl)phenyl)propanamide]
[1]
  pIC50: < 6.00
[2]
  pIC50: < 6.00

## COc1c(/C=C/c2ccc(NS(C)(=O)=O)cc2)cc(-c2c[nH]c(=O)[nH]c2=O)cc1C(C)(C)C [compound 4, (E)-N-(4-(3-tert-butyl-5-(2,4-dioxo-1,2,3,4-tetrahydropyrimidin-5-yl)-2-methoxystyryl)phenyl)methanesulfonamide]
[3]
  pEC50: ≥ 8.00
[4]
  pEC50: ≥ 8.00

## COc1c(-c2c[nH]c(=O)[nH]c2=O)cc(-c2ccc3cc(NS(C)(=O)=O)ccc3c2)cc1C(C)(C)C [compound 1, N-(6-(3-tert-butyl-5-(2,4-dioxo-1,2,3,4-tetrahydropyrimidin-5-yl)-4-methoxyphenyl)naphthalen-2-yl)methanesulfonamide]
[1]
  pIC50: 6.00 to 7.00
[2]
  pIC50: 6.00 to 7.00

## COc1c(-c2ccc3cc(NS(C)(=O)=O)ccc3c2)cc(NC(=O)Nc2ccccc2)cc1C(C)(C)C [compound 17, N-(6-(3-tert-butyl-2-methoxy-5-(3-phenylureido)phenyl)naphthalen-2-yl)methanesulfonamide]
[1]
  pIC50: < 6.00
[2]
  pIC50: < 6.00
